The record followed here is patent US20140336193A1, “POTENT NON-UREA INHIBITORS OF SOLUBLE EPOXIDE HYDROLASE” (priority 2012, published 2014).

Data set [1] addresses T1, Human sEH (Homo sapiens, UniProt P34913).
T1 sequence (P34913 1-555): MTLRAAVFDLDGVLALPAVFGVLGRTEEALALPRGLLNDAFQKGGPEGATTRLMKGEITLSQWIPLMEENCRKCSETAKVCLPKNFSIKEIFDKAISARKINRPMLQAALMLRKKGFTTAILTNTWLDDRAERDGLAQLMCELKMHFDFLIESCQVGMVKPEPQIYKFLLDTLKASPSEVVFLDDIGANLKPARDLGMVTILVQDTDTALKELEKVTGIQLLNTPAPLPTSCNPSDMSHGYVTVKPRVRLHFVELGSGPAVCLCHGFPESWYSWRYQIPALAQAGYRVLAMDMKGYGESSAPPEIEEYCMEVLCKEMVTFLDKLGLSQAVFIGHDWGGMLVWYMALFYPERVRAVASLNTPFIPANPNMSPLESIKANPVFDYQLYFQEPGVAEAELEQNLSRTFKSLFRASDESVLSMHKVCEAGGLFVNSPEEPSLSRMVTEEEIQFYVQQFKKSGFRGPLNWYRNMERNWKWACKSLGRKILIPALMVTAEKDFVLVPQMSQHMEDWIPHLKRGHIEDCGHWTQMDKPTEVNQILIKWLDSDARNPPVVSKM
Kind of data set: Fluorescent assay with CMNPC substrate (Example 2). It is filed as biochemical. Here is the method: A fluorescent assay was employed for high throughput screening (HTS) of inhibitors of sEH. Cyano(2-methoxynaphthalen-6-yl)methyl trans-(3-phenyloxyran-2-yl)methyl carbonate (CMNPC) was used as the fluorescent substrate. Human sEH (1 nM) was incubated with a compound of Formula I for 5 min in pH 7.0 Bis-Tris/HCl buffer (25 mM) containing 0.1 mg/mL of BSA at 30° C. prior to substrate introduction ([S]=5 μM). […] IC50 values are the average of the three replicates with at least two datum points above and at least two below the IC50.

Data set [2] can be described thus: In vitro human liver microsomal metabolic stability (Example 4). It is filed as in vitro ADME. The conditions noted are these: for CLint scaled / half-life: pooled human liver microsomes; for CLint scaled: apparent intrinsic clearance, human liver microsomes; for half-life: half life in human liver microsomes, averages of duplicate determination, read-out: hLM t1/2. As for the experimental part:
The stability of sEH inhibitors in a human liver microsomal assay was determined as a predictor of in vivo oxidative metabolism. Microsomal stability was assessed in pooled human liver microsomes (Celsis, Edison, N.J.). All reactions were carried out for 90 min at 37° C. in an NADPH-generating system consisting of glucose 6-phosphate, glucose 6-phosphate dehydrogenase, and NADP^+ (Sigma, St. Louis, Mo.). Positive control incubations proceeded with 7-ethoxycoumarin as the substrate. Reactions were terminated by adding methanol. The mixtures were centrifuged and the supernatants were evaporated. The residues were reconstituted in mobile phase (85% ACN; 15% H2O) and subjected to LC/MS analysis.

Data set [3] has as its target T1, Human sEH. Description: biochemical. The settings on record: Table 1.

SMILES strings stand for the structures.

One may read the IC50 as the concentration that gives 50% inhibition. Low readings indicate greater potency in that assay, high ones weaker potency in that assay. By CLint scaled is commonly meant a measure of how fast metabolising enzymes remove a compound, apart from limits set by blood flow.

The molecule `Cc1ccc(S(=O)(=O)N2CCC(C(=O)N[C@@H]3C[C@H]3c3ccccc3)CC2)c(C)c1` [Compound 7-3] came in with an IC50 in data set [1] of 0.0052 µM. In data set [2], the CLint scaled stood at 5.4 L/h/kg and the half-life was found to be 14 min. Take `Cc1ccc(S(=O)(=O)N2CCC(C(=O)NC3CCCCC3)CC2)c(C)c1` [Compound 7-6]: in data set [2], the CLint scaled is 5.4 L/h/kg and the half-life was determined as 14 min. Molecule `Cc1ccc(S(=O)(=O)N2CCC(C(=O)NC3CCCc4ccccc43)CC2)c(C)c1` (centres unmarked) [Compound 7-8] yielded an IC50 in data set [1] of 0.0006 µM. `Cc1ccc(S(=O)(=O)N2CCC(C(=O)NCC3CCCCC3)CC2)c(C)c1` [Compound 7-9]: in data set [2], the CLint scaled was 31.2 L/h/kg and the half-life was 2.4 min.

For `Cc1ccc(S(=O)(=O)N2CCC(C(=O)NC34CC5CC(CC(C5)C3)C4)CC2)c(C)c1` [Compound 7-11], the 50% inhibitory concentration (IC50) in data set [1] came out at 0.0085 µM. In data set [2], the CLint scaled was 20.4 L/h/kg and the half-life was 3.7 min. On to `Cc1ccc(S(=O)(=O)N2CCC(C(=O)Nc3ccccc3)CC2)c(C)c1` [Compound 7-12], for which, in data set [1], the IC50 turned out to be 0.023 µM. On the same count and under the same terms, under `Cc1ccc(S(=O)(=O)N2CCC(C(=O)Nc3ccccc3F)CC2)c(C)c1` [Compound 7-13] stands 0.02 µM. On the same count and under the same terms, under `Cc1ccc(S(=O)(=O)N2CCC(C(=O)Nc3ccccc3Cl)CC2)c(C)c1` [Compound 7-14] stands 0.25 µM; under `Cc1ccc(S(=O)(=O)N2CCC(C(=O)Nc3ccccc3Br)CC2)c(C)c1` [Compound 7-15], 0.03 µM. Take `Cc1ccc(S(=O)(=O)N2CCC(C(=O)Nc3ccccc3C)CC2)c(C)c1` [Compound 7-16]: half-maximal inhibition in data set [1] (IC50) required 0.64 µM. Still for that read-out and setting: then `Cc1ccc(S(=O)(=O)N2CCC(C(=O)Nc3ccccc3O)CC2)c(C)c1` [Compound 7-17], with 2.2 µM. Still for that read-out and setting: under `Cc1ccc(S(=O)(=O)N2CCC(C(=O)Nc3ccc(O)cc3)CC2)c(C)c1` [Compound 7-19] stands 0.055 µM. Turning to `Cc1ccc(S(=O)(=O)N2CCC(C(=O)Nc3ccc(Oc4ccccc4)cc3)CC2)c(C)c1` [Compound 7-20], half-maximal inhibition in data set [1] (IC50) required 0.006 µM. In data set [2], the intrinsic clearance (CLint scaled) stood at 7.2 L/h/kg and the half-life turned out to be 11 min. `COC(=O)c1ccc(NC(=O)C2CCN(S(=O)(=O)c3ccc(C)cc3C)CC2)cc1` [Compound 7-21] had an IC50 in data set [1] of 0.013 µM. Regarding `Cc1ccc(S(=O)(=O)N2CCC(C(=O)Nc3ccc(C(=O)O)cc3)CC2)c(C)c1` [Compound 7-22], it took 0.11 µM to reach half-maximal inhibition in data set [1] (IC50). On to `Cc1ccc(S(=O)(=O)N2CCC(C(=O)Nc3ccc(OC(F)(F)F)cc3)CC2)c(C)c1` [Compound 7-23], for which the IC50 in data set [1] amounted to 0.0052 µM. In data set [2], the CLint scaled came out at 1.68 L/h/kg and the half-life is 46 min. On the same counts, the results for `Cc1ccc(S(=O)(=O)N2CCC(C(=O)Nc3ccc([N+](=O)[O-])cc3)CC2)c(C)c1` [Compound 7-24] are 0.0046 µM, 0.42 L/h/kg and 180 min. Regarding `Cc1ccc(S(=O)(=O)N2CCC(C(=O)Nc3ccc(N4CCCCC4)cc3)CC2)c(C)c1` [Compound 7-25], in data set [1], the IC50 was 0.029 µM. In data set [2], the “in vitro metabolic stability in human liver microsomes, in words” value was “intermediate metabolic profiles”. On the same counts, the results for `Cc1ccc(S(=O)(=O)N2CCC(C(=O)Nc3ccc(N4CCCCC4)c(C(N)=O)c3)CC2)c(C)c1` [Compound 7-26] are 0.102 µM and “intermediate metabolic profiles”. In data set [1], `Cc1ccc(S(=O)(=O)N2CCC(C(=O)Nc3ccc(N4CCOCC4)cc3)CC2)c(C)c1` [Compound 7-27] returned an IC50 of 0.041 µM. On the same count and under the same terms, under `Cc1ccc(S(=O)(=O)N2CCC(C(=O)Nc3ccc(C(C)C)cc3)CC2)c(C)c1` [Compound 7-28] stands 0.0028 µM; under `Cc1ccc(S(=O)(=O)N2CCC(C(=O)Nc3ccc(C(F)(F)F)cc3)CC2)c(C)c1` [Compound 7-29], 0.0069 µM. In the case of `Cc1ccc(S(=O)(=O)N2CCC(C(=O)Nc3ccc(S(=O)(=O)C(F)(F)F)cc3)CC2)c(C)c1` [Compound 7-30], the IC50 in data set [1] came to 0.0087 µM. On the same count and under the same terms, then `Cc1ccc(S(=O)(=O)N2CCC(C(=O)Nc3cccc(C(F)(F)F)c3)CC2)c(C)c1` [Compound 7-31], with 0.02 µM; and `Cc1ccc(S(=O)(=O)N2CCC(C(=O)Nc3ccc(F)cc3)CC2)c(C)c1` [Compound 7-32], with 0.025 µM; and `Cc1ccc(S(=O)(=O)N2CCC(C(=O)Nc3ccc(Cl)cc3)CC2)c(C)c1` [Compound 7-33], with 0.02 µM.

Take `Cc1ccc(S(=O)(=O)N2CCC(C(=O)Nc3ccc(Br)cc3)CC2)c(C)c1` [Compound 7-34]: in data set [1], 0.017 µM corresponded to half-maximal inhibition (IC50).

The molecule `Cc1ccc(S(=O)(=O)N2CCC(C(=O)Nc3cc(Cl)cc(Cl)c3)CC2)c(C)c1` [Compound 7-35] yielded an IC50 in data set [1] of 0.012 µM. Same read-out and setting: then `Cc1ccc(S(=O)(=O)N2CCC(C(=O)Nc3ccc(Cl)c(C(F)(F)F)c3)CC2)c(C)c1` [Compound 7-36], with 0.043 µM. For `Cc1ccc(S(=O)(=O)N2CCC(C(=O)Nc3ccc(Cl)c(Cl)c3)CC2)c(C)c1` [Compound 7-37], in data set [1], inhibition was half-maximal at 0.0067 µM (IC50). Further, in data set [2], the intrinsic metabolic clearance (CLint scaled) came to 3 L/h/kg and the half-life was determined as 25 min.

In data set [1], `Cc1ccc(S(=O)(=O)N2CCC(C(=O)Nc3ccc4ccccc4c3)CC2)c(C)c1` [Compound 7-38] gave an IC50 of 0.0016 µM. Moreover, in data set [2], the CLint scaled came out at 2.1 L/h/kg and the half-life was found to be 36 min. The molecule `Cc1ccc(S(=O)(=O)N2CCC(C(=O)Nc3cnc4ccccc4c3)CC2)c(C)c1` [Compound 7-40] returned an IC50 in data set [1] of 0.045 µM. Still for that read-out and setting: under `Cc1ccc(S(=O)(=O)N2CCC(C(=O)Nc3ccc4ncccc4c3)CC2)c(C)c1` [Compound 7-41] stands 0.078 µM. Still for that read-out and setting: then `COC(=O)c1ccc2cc(NC(=O)C3CCN(S(=O)(=O)c4ccc(C)cc4C)CC3)ccc2c1` [Compound 7-43], with 0.0023 µM.

In turn, `Cc1ccc(S(=O)(=O)N2CCC(C(=O)Nc3ccc4cc(C(=O)O)ccc4c3)CC2)c(C)c1` [Compound 7-44] returned an IC50 in data set [1] of 0.023 µM. In data set [2], the “in vitro metabolic stability in human liver microsomes, in words” value is recorded as “excellent in vitro metabolic stability”; the CLint scaled amounted to 0.336 L/h/kg; the half-life was 220 min. For the molecule `Cc1ccc(S(=O)(=O)N2CCC(C(=O)Nc3ccc4c(c3)OCO4)CC2)c(C)c1` [Compound 7-45], it took 0.0006 µM to reach half-maximal inhibition in data set [1] (IC50). In data set [2], the CLint scaled turned out to be 2.1 L/h/kg and the half-life worked out at 36 min. As to `Cc1ccc(S(=O)(=O)N2CCC(C(=O)NC34CC5CC(CC(C5)C3)C4)CC2)c(C)c1` [Compound 2535], the midpoint of inhibition in data set [3], the IC50, lay at 0.0085 µM.

Turning to `Cc1ccc(S(=O)(=O)N2CCC(C(=O)NC3C[C@@H]3c3ccccc3)CC2)c(C)c1` (some centres unmarked) [Compound 2536], the IC50 in data set [3] was 0.0052 µM. As to `Cc1ccc(S(=O)(=O)N2CCC(C(=O)Nc3ccc4cc(C(=O)O)ccc4c3)CC2)c(C)c1` [Compound 2590], the IC50 in data set [3] is 0.0232 µM.
